# Measured values taken from patent US20260226034A1 (The Rockefeller University, priority 2023, published 2026).
# Target: NSP14 (Severe acute respiratory syndrome coronavirus 2, UniProt P0DTD1)
# Assay: NSP14 MTase inhibition assay at 37° C. (MTase-Glo SAH detection)
# Format: biochemical, SARS-CoV-2
# Conditions: 0.3 nM NSP14, 2.5 μM SAM, 2.5 μM GpppA RNA, 45 min at 37° C.; read-out: Nsp14 Mtase Inh. IC50
# Method: NSP14 MTase assay at 37° C. (0.3 nM NSP14 as final enzyme concentration)
# The NSP14 MTase assay at 37° C. is carried out in 384-well flat bottom polystyrene microplates (Greiner, 781075). Per well, 10 μl of 1×NSP14 reaction buffer (50 mM Tris-HCl, pH 7.5, 6 mM KCl, 1.25 mM MgCl2, 1 mM DTT, and 0.01% Tween-20) are dispensed in columns 1-23 using a Thermo Multidrop Combi dispenser (Thermo Scientific). 0.1 μl of serially diluted compounds in DMSO are dispensed into columns 1-22 of the assay microplates with a Janus 384 MDT NanoHead (PerkinElmer). In wells of column 23, which serve as negative controls, no compounds are added.
# The NSP14 reaction is started by adding 4 μl of a 4× substrate solution containing S-adenosyl methionine (SAM, 10 μM) and GpppA RNA (10 μM) prepared in 1×NSP14 reaction buffer. Any addition of reagents is followed by a 30 second centrifugation at 500×g to ensure that all liquid was collected at the bottom of the well. The final concentrations of NSP14, SAM, and GpppA RNA are 0.3 nM, 2.5 μM, and 2.5 μM, respectively. The final reaction volume is 16 μl. Plates are sealed and incubated for 45 min at 37° C.
# For SAH detection, 1 μl 5× MTase-Glo™ Reagent (Promega) is added to each well, plates are mixed for 1-2 minutes and incubated at room temperature for 30 minutes. 5 μl of room-temperature MTase-Glo™ Detection Solution (Promega) is added to each well, plates are mixed for 1-2 minutes and incubated at room temperature for 30 minutes. Luminescence signals of each well are recorded in relative light units (RLUs) using a Biotek Synergy Neo plate reader (BioTek, Winooski, VT). The SAH production is normalized against the positive control (PK, column 24) and negative control (NK, column 23) as follows: normalized % inhibition=100×(RLUsample-RLUaverageNK)/(RLUaveragePK-RLUaverageNK).
row,SMILES,IC50 [nM]
1,"Cc1cc(S(=O)(=O)c2cc(C(=O)NCc3c(F)ccc4occc34)n(C)c2C)cc2cn[nH]c12 [A.1, N-[(5-fluorobenzofuran-4-yl)methyl]-1,5-dimethyl-4-[(7-methyl-1H-indazol-5-yl)sulfonyl]pyrrole-2-carboxamide]",0.2
2,Cc1c(S(=O)(=O)c2ccc3[nH]ncc3c2)cc(C(=O)NCc2c(F)ccc3occc23)n1C [A.2],0.32
3,Cc1c(S(=O)(=O)c2ccc3[nH]ncc3c2)cc(C(=O)NCc2cccc3cnn(C)c23)n1C [A.3],0.35
4,"Cc1c(S(=O)(=O)c2ccc3c(cnn3C)c2)cc(C(=O)NCc2c(F)ccc3ncn(C4CC4)c23)n1C [A.4, N-[(3-cyclopropyl-5-fluoro-benzimidazol-4-yl)methyl]-1,5-dimethyl-4-(1-methylindazol-5-yl)sulfonyl-pyrrole-2-carboxamide]",0.5
5,Cc1c(S(=O)(=O)c2ccc3[nH]ncc3c2)cc(C(=O)NCc2cccc3cnn(C4CC4)c23)n1C [A.5],1.5
6,"Cc1c(S(=O)(=O)c2cccc(C#N)c2)cc(C(=O)NCc2cccc3cnn(C)c23)n1C [A.6, 4-(3-cyanophenyl)sulfonyl-1,5-dimethyl-N-[(1-methylindazol-7-yl)methyl]pyrrole-2-carboxamide]",1.7
7,"Cc1c(S(=O)(=O)c2ccccc2)cc(C(=O)NCc2c(F)ccc3cnn(C)c23)n1C [A.7, N-((6-fluoro-1-methyl-1H-indazol-7-yl)methyl)-1,5-dimethyl-4-(phenylsulfonyl)-1H-pyrrole-2-carboxamide]",1.7
8,Cc1c(S(=O)(=O)c2ccc3occc3c2)cc(C(=O)NCc2cccc3cnn(C)c23)n1C [A.8],1.8
9,Cc1c(S(=O)(=O)c2cccc(Cl)c2)cc(C(=O)NCc2cccc3cnn(C)c23)n1C [A.9],2.1
10,Cc1c(S(=O)(=O)c2ccccc2)cc(C(=O)NCc2c(F)ccc3cnn(C4CC4)c23)n1C [A.10],4.9
11,Cc1c(S(=O)(=O)c2ccc(Cl)cc2)cc(C(=O)NCc2cccc3cnn(C)c23)n1C [A.11],5.3
12,Cc1c(S(=O)(=O)c2ccc3c(cnn3C)c2)cc(C(=O)NCc2cccc3cnn(C)c23)n1C [A.12],5.6
13,Cc1c(S(=O)(=O)c2ccc3[nH]ncc3c2)cc(C(=O)NCc2cccn3nccc23)n1C [A.13],7.2
14,Cc1c(S(=O)(=O)c2ccc3occc3c2)cc(C(=O)NCc2c(F)ccc3occc23)n1C [A.14],7.7
15,Cc1c(S(=O)(=O)c2ccc(=O)n(C)c2)cc(C(=O)NCc2cccc3cnn(C)c23)n1C [A.15],13.4
16,Cc1c(S(=O)(=O)c2ccccc2)cc(C(=O)NCc2cccc3cnn(C)c23)n1C [A.16],15
17,Cc1c(S(=O)(=O)c2ccc(F)cc2)cc(C(=O)NCc2cccc3cnn(C)c23)n1C [A.17],16
18,Cc1c(S(=O)(=O)c2ccc3c(cnn3C)c2)cc(C(=O)NCc2c(F)ccc3cnn(C)c23)n1C [A.18],18
19,Cc1c(S(=O)(=O)c2ccc3c(cnn3C)c2)cc(C(=O)NCc2c(F)ccc3occc23)n1C [A.19],21
20,Cc1c(S(=O)(=O)c2ccccc2)cc(C(=O)NCc2c(F)ccc3occc23)n1C [A.20],22
21,Cc1c(S(=O)(=O)c2ccc(C(N)=O)cc2)cc(C(=O)NCc2cccc3cnn(C)c23)n1C [A.21],53
22,Cc1c(S(=O)(=O)c2ccccc2)cc(C(=O)NCc2cccnc2N2CCCC2)n1C [A.22],67
23,COc1ccccc1CNC(=O)c1cc(S(=O)(=O)c2ccc3c(cnn3C)c2)c(C)n1C [A.23],68
24,Cc1c(S(=O)(=O)c2ccc(C#N)cc2)cc(C(=O)NCc2cccc3cnn(C)c23)n1C [A.24],89
25,Cc1c(S(=O)(=O)c2ccncc2)cc(C(=O)NCc2cccc3cnn(C)c23)n1C [A.27],102

# Same assay, conditions: 37° C., 0.3 nM NSP14, 2.5 μM SAM, 2.5 μM GpppA RNA; read-out: Nsp14 Mtase Inh. IC50
row,SMILES,IC50 [nM]
1,"Cc1c(S(=O)(=O)c2ccc3[nH]ncc3c2)cc(C(=O)N[C@H]2Cc3ccccc32)n1C (single isomer, unassigned) [B.170]",2.5
2,"Cc1c(S(=O)(=O)c2ccc3[nH]ncc3c2)cc(C(=O)N[C@H]2Cc3ccccc32)n1C (single isomer, unassigned) [B.171]",2.7
